Laboratory results taken from ChEMBL document CHEMBL4828717, “Synthetic cajaninstilbene acid derivatives eradicate methicillin-resistant Staphylococcus aureus persisters and biofilms” (Eur J Med Chem, 2021).
The source made the active and inactive calls. The rule behind the calls is not given here.

Columns and labels:
Staphylococcus aureus [1] = assay: Antibacterial activity against methicillin resistant Staphylococcus aureus ATCC48073 assessed as reduction in microbial growth after 16 to 18 hrs by microbroth dilution method; type: functional; conditions: time 16-18 hrs
[2] = Cytotoxicity against mouse RAW264.7 cells assessed as cell viability at 10 ug/ml measured after 24 hrs by MTT assay; type: cell-based; conditions: RAW264.7 cells, at 10 µg/mL, read-out: Activity
L02 = assay: Cytotoxicity against human L02 cells assessed as cell viability at 10 ug/ml measured after 24 hrs by MTT assay; type: cell-based; conditions: l02, 24 h, dose 10 µg/ml
Staphylococcus aureus [3] = assay: Antibacterial activity against methicillin resistant Staphylococcus aureus ATCC 43300 persisters assessed as reduction in colony formation at 8 ug/ml incubated for 2 hrs by colony counting method; type: functional, organism-based; conditions: dose 8.0 µg/ml
Staphylococcus aureus [4] = assay: Antibacterial activity against methicillin resistant Staphylococcus aureus ATCC 43300 persisters assessed as reduction in colony formation at 8 ug/ml incubated for 8 hrs by colony counting method; type: functional, organism-based; conditions: dose 8.0 µg/ml
Cell membrane [5] = assay: Induction of cell membrane permeabilization in methicillin resistant Staphylococcus aureus ATCC 43300 assessed as fluorescence intensity at 0.5 to 2 times of MIC measured after 30 mins by propidium iodide staining based fluorescence assay; type: subcellular
Staphylococcus aureus [6] = assay: Induction of morphological changes in Staphylococcus aureus ATCC 43300 assessed as membrane damage at 8 times MIC after 90 mins by TEM analysis; type: functional, organism-based
Cell membrane [7] = assay: Induction of cell membrane damage in methicillin resistant Staphylococcus aureus ATCC 43300 assessed as increase in nucleic acid leakage by measuring increase in absorbance at 260 nm at 0.5 to 2 times MIC measured every 30 mins for 6 hrs by spectrophotometry; type: subcellular
Staphylococcus aureus [8] = assay: Inhibition of biofilm formation in methicillin-resistant Staphylococcus aureus ATCC 43300 at 4 times MIC incubated for 24 hrs by crystal violet staining based microplate reader assay; type: functional
Staphylococcus aureus [9] = assay: Synergistic antimicrobial activity against Staphylococcus aureus ATCC 43300 assessed as FICI at 0.5 times MIC after 24 hrs in presence of 16 ug/ml gentamicin by checkerboard assay; type: functional
Staphylococcus aureus [10] = assay: Synergistic antimicrobial activity against Staphylococcus aureus ATCC 43300 assessed as FICI at 0.5 times MIC after 24 hrs in presence of 128 ug/ml kanamycin by checkerboard assay; type: functional
[11] = Toxicity in BALB/c mouse infected with methicillin-resistant Staphylococcus aureus ATCC 43300 assessed as damage in heart at 50 to 200 mg/kg, sc administered every 24 hrs for 4 days by H&E staining based light microscopic analysis; type: organism-based; conditions: in vivo, dose 50-200 mg/kg
[12] = Toxicity in BALB/c mouse infected with methicillin-resistant Staphylococcus aureus ATCC 43300 assessed as damage in liver at 50 to 200 mg/kg, sc administered every 24 hrs for 4 days by H&E staining based light microscopic analysis; type: organism-based; conditions: in vivo, dose 50-200 mg/kg
[13] = Toxicity in BALB/c mouse infected with methicillin-resistant Staphylococcus aureus ATCC 43300 assessed as damage in kidney at 50 to 200 mg/kg, sc administered every 24 hrs for 4 days by H&E staining based light microscopic analysis; type: organism-based; conditions: in vivo, dose 50-200 mg/kg

For `CC(C)=CCc1c(OCCF)cc(/C=C/c2ccc(F)cc2)c(C(=O)O)c1O`, the MIC (Staphylococcus aureus [1]) was 4 mg/L, the viability at 24 h, 10 ug/ml [2] was over 60% and the Activity (L02) was “Toxic”. For the same compound, the Activity (Staphylococcus aureus [3]) was “Active”, the Activity (Staphylococcus aureus [4]) was “Active” and the Activity (Cell membrane [5]) was “Dose-Dependent Effect”. For the same compound, the Activity (Staphylococcus aureus [6]) was “Active”, the Activity (Cell membrane [7]) was “Active” and the “inhibition (INH)” value (Staphylococcus aureus [8]) was 90%. The “fractional inhibitory concentration index (FICI)” value (Staphylococcus aureus [9]) was 1.125, the “fractional inhibitory concentration index (FICI)” value (Staphylococcus aureus [10]) was 1.125 and the Activity [11] was “Non-Toxic”. The Activity [12] was “Non-Toxic” and the Activity [13] was “Non-Toxic”.
